Tests used:
[1] = target: T1, human serotonin transporter (Homo sapiens, UniProt P31645); test: Serotonin transporter reuptake inhibition assay; type: cell-based; settings: HEK293; 100 nM; HEK-293 cells with human serotonin transporter; [3H]Serotonin uptake; read-out: Inhibition % at 100 nM 5-HT reuptake
T1 construct: expressed in transfected cells; host or cells: HEK-293
Procedure: Serotonin Transporter Reuptake Inhibition Assay
The method to test the ability of compounds to inhibit transporters from reuptake of serotonin followed Gu H. et al., J Biol. Chem., 1994, 269, p […].
The recombinant HEK-293 cells with human serotonin transporter were plated. Test compounds were pre-incubated with cells (2×10^5/ml) in modified Tris-HEPES buffer pH 7.1 for 20 minutes at 25° C. and then they were incubated for additional 10 minutes after 65 nM of [^3H]Serotonin was added. Bound cells were filtered and counted to determine [^3H]Serotonin uptake. Reduction of [^3H]Serotonin uptake by 50 percent or more (≧50%) relative to 10 μM fluoxetine indicates significant inhibitory activity. Compounds were screened at 10, 1, 0.1, 0.01 and 0.001 μM for IC50s.

mice [2] = test: Forced swimming test in mice (FST); type: in vivo; settings: Mus musculus, 0.5 h, 30ip, 30 min after administration, vs control group, read-out: Reduction % at 30ip (duration of immobility)
Procedure: Forced Swimming Test in Mice (FST)
The Forced swimming test is an animal model based on the rodent's behavioral repertoire for screening drugs with potential antidepressant activity. As in several other models used for this goal, an uncontrollable stress stimulus produces behavioral changes that are sensitive to antidepressant treatment.
The mice were intraperitoneally treated with the test compound with an injection volume of […]. The group treated with 30% PEG400 served as a control group. Thirty minutes following administration, mice were individually forced to swim in a transparent glass vessel (14 cm high, 11.5 cm in diameter) filled with 10 cm of water at 25° C. The total duration of immobility (second) was measured during the last 4 minutes of a single 6-min test session. Mice were considered immobile when they made no further attempts to escape other than the movements necessary to keep their heads above the water. The potent ability of the compounds was determined as percent value of reduction in the duration of immobility comparing to the control group.

[3] = target: T2, human recombinant dopamine transporter (Homo sapiens, UniProt Q01959); test: Dopamine transporter reuptake inhibition assay; type: cell-based; settings: 100 nM; CHO-K1 cells with human dopamine transporter; [3H]Dopamine uptake; read-out: Inhibition % at 100 nM DA reuptake
T2 construct: expressed in transfected cells; host or cells: CHO-K1
Procedure: Dopamine Transporter Reuptake Inhibition Assay
The assay followed the method modified from Pristupa Z. B. et al., Mol. Pharmacol., 1994, p 125˜135.
CHO-K1 cells with human recombinant dopamine transporter were plated. Test compounds were pre-incubated with cells (4×10^5/ml) in modified Tris-HEPES buffer pH 7.1 for 20 minutes at 25° C. and then they were incubated for additional 10 minutes after 50 nM of [^3H]Dopamine was added. A lysate is obtained from solubilized cells and counted to determine [^3H]Dopamine uptake. Reduction of [^3H]Dopamine uptake by 50 percent or more (≧50%) relative to 10 μM nomifensine indicates significant inhibitory activity. Compounds were tested at 10, 1, 0.1, 0.01 and 0.001 μM for IC50s.

[4] = target: T3, human recombinant norepinephrine transporter (Homo sapiens, UniProt P23975); test: Norepinephrine transporter reuptake inhibition assay; type: cell-based; settings: 100 nM; MDCK cells with human norepinephrine transporter; [3H]Norepinephrine uptake; read-out: Inhibition % at 100 nM NE reuptake
T3 construct: expressed in transfected cells; host or cells: MDCK
Procedure: Norepinephrine Transporter Reuptake Inhibition Assay
Norepinephrine transporter reuptake inhibition assay used the method described by Galli A. et al., J Exp Biol., 1995, 198, p 2197˜2212.
MDCK cells with stably expressed human recombinant norepinephrine transporter were plated one day. Test compounds were pre-incubated with cells (2×10^5/ml) in modified Tris-HEPES buffer pH 7.1 for 20 minutes at 25° C. and then they were incubated for additional 10 minutes after 25 nM of [^3H]Norepinephrine was added. A lysate was obtained from solubilized cells and the filtered lysate was counted to determine [^3H]Norepinephrine uptake. Reduction of [^3H]Norepinephrine uptake by 50 percent or more (≧50%) relative to 10 μM desipramine indicates significant inhibitory activity. Compounds were screened at 10, 1, 0.1, 0.01 and 0.001 μM to determine their IC50s.

mice [5] = test: Acetic acid induced writhing test (AA writhing test); type: in vivo; settings: 0.8% acetic acid i.p. 30 min later, vs control group
Source text: Specially the results of Marble burying test (MB) in mice as noted in Table 3 show the compounds of the invention are related to the treatment of anxiety. Acetic Acid Induced Writhing Test (AA Writhing Test)
The Acetic acid-induced writhing test is a well-established nociceptive test using a chemical stimulus. Although several animal models of nociceptive tests have been developed to examine and compare the anti-nociceptive effects of different drugs, the anti-nociceptive effects of antidepressants appear to be test-dependent. Indeed, the acetic acid-induced writhing test is more sensitive to antidepressants than other tests using thermal, mechanical or electrical stimuli.
The animals were subcutaneously treated with the test compound with an injection volume of 10 ml/kg. The group treated with 30% PEG400 or saline served as a control group. Thirty minutes later, the mice were intraperitoneally treated with 0.8% (v/v) acetic acid. Each mouse was then placed in a cage for individual observation. The writhing numbers for 10 minutes were counted. The writhe is operationally defined as a contraction of the abdomen followed by stretching of the hind limbs. The potent ability of the compounds was determined as percent value of reduction in the number of writhing comparing to the control group.

mice [6] = test: Marble burying test; type: in vivo; settings: 30 min after treatment, vs control group
Source text: The Marble burying test is a screening tool for putative anxiolytics. In this test, control mice naturally bury glass marbles in the cage bedding and the administration of anxiolytic compounds, including Diazepam, reduces the number of buried marbles. Positive compounds in the marble burying test including selective serotonin reuptake inhibitor may be especially beneficial to obsessive-compulsive disorder.
A group of mice was intraperitoneally treated with test compound dissolved in 30% PEG400 with an injection volume of 10 ml/kg. The group treated with only 30% PEG400 served as a control group. Thirty minutes after the treatment, the animals were individually placed in a polycarbonate cage which was same as used for animal housing with an open top located within a quiet room. Each cage consisted of ⅛ inch corn bedding 5 cm deep. Twenty four clean glass marbles (15 mm diameter) were evenly spaced in four rows of six on top of the bedding. Each mouse was left in the cage for 30 minutes and the number of marbles buried (buried more than ½ or ⅔) was counted. The potent ability of the compounds was determined as percent value of reduction in the number of marbles buried comparing to the control group.

T2 sequence (Q01959 whole entry): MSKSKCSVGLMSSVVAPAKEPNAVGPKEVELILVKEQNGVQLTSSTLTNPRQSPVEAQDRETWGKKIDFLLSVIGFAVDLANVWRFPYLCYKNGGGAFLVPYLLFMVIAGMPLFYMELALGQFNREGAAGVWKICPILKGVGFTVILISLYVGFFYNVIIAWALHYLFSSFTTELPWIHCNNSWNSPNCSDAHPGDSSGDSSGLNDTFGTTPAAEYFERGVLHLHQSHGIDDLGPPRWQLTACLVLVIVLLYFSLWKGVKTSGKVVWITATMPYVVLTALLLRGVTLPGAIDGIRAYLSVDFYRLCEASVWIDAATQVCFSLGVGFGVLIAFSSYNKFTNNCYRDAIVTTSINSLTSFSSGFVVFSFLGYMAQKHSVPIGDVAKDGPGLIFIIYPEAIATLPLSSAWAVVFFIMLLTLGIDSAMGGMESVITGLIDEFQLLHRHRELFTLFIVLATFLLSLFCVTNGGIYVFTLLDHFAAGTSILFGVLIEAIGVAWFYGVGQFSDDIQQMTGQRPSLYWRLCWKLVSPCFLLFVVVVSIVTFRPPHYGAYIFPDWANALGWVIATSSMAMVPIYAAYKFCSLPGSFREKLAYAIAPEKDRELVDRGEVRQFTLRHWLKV
T3 sequence (P23975 whole entry): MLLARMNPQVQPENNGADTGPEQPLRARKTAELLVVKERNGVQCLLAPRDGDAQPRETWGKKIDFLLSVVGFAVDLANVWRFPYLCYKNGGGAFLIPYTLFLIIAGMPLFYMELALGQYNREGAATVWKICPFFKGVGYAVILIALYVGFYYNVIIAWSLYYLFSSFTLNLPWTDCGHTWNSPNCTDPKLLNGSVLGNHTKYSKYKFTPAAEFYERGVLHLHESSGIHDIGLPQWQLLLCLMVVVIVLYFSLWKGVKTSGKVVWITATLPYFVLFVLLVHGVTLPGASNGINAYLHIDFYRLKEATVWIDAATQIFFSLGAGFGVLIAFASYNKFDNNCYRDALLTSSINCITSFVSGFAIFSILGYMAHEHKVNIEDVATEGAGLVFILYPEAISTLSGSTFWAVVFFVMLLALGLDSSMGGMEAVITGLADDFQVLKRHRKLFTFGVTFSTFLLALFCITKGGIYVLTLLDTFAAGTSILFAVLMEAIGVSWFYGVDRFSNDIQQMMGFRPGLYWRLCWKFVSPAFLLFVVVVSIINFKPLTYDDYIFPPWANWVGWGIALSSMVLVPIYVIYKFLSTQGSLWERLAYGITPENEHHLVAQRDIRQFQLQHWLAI
T1 sequence (P31645 whole entry): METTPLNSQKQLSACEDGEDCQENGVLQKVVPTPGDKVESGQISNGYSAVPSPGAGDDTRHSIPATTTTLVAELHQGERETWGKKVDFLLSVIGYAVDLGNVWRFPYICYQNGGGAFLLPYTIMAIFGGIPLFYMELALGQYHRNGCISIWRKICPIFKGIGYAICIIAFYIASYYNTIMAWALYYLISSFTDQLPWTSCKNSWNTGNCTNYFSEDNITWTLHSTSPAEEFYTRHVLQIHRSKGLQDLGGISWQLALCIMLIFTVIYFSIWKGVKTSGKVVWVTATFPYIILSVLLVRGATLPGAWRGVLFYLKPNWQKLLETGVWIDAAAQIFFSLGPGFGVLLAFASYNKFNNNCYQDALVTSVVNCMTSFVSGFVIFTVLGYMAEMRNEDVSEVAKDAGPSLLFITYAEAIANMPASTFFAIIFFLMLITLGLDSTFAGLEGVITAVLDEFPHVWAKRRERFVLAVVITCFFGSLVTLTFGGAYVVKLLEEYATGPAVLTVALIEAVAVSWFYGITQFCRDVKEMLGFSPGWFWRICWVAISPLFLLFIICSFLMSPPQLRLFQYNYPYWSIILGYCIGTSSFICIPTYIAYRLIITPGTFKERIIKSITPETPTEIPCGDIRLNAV

SMILES | inhibition at 0.1 µM [1] [%] | inhibition in vivo at 30 mg/kg (mice [2]) [%] | inhibition at 0.1 µM [3] [%] | inhibition at 0.1 µM [4] [%] | Reduction % at 30sc (number of writhing) (mice [5]) [%] | Reduction % (number of marbles buried) at 10ip (mice [6]; 10ip) | Reduction % (number of writhing) at 10sc (mice [5]) | Reduction % (number of marbles buried) at 20ip (mice [6]; 20ip)
c1ccc2cc([C@@H]([C@@H]3CCCNC3)n3ncnn3)ccc2c1 [Example 1, (3R)-3-[(R)-naphthalen-2-yl(2H-tetrazol-2-yl)methyl]piperidine] | 81 | 56.3 | 88 | 94 | 70.8 | 57.5% (at 10ip) |  | 
c1ccc2cc([C@H]([C@H]3CCCNC3)n3ncnn3)ccc2c1 [Example 2, (3S)-3-[(S)-naphthalen-2-yl(2H-tetrazol-2-yl)methyl]piperidine] | 98 | 37.5 | 85 | 85 |  |  | 60.6% (at 10sc) | 67.5% (at 20ip)
Cc1nnn([C@H](c2ccc3ccccc3c2)[C@H]2CCCNC2)n1 [Example 10, (3S)-3-[(S)-(5-methyl-2H-tetrazol-2-yl)(naphthalen-2-yl)methyl]piperidine] | 93 |  | 93 | 87 |  |  |  | 
c1ccc2cc([C@@H]([C@@H]3CCCNC3)n3nccn3)ccc2c1 [Example 13, (3R)-3-[(R)-naphthalen-2-yl(2H-1,2,3-triazol-2-yl)methyl]piperidine] | 84 | 9.4 | 63 | 87 | 71.8 |  |  | 
c1ccc2cc([C@H]([C@H]3CCCNC3)n3nccn3)ccc2c1 [Example 14, (3S)-3-[(S)-naphthalen-2-yl(2H-1,2,3-triazol-2-yl)methyl]piperidine] | 76 | 6.4 | 52 | 70 |  |  |  | 
COc1ccc2cc([C@H]([C@H]3CCCNC3)n3ncnn3)ccc2c1 [Example 35, (3S)-3-[(S)-(6-methoxynaphthalen-2-yl)(2H-tetrazol-2-yl)methyl]piperidine] | 76 | 32.7 | 78 | 72 |  |  |  | 
Clc1ccc2cc([C@@H]([C@@H]3CCCNC3)n3ncnn3)ccc2c1 [Example 67, (3R)-3-[(R)-(6-chloronaphthalen-2-yl)(2H-tetrazol-2-yl)methyl]piperidine] | 97 | 2.4 | 81 | 90 |  |  |  | 
Clc1ccc2cc([C@H]([C@H]3CCCNC3)n3ncnn3)ccc2c1 [Example 68, (3S)-3-[(S)-(6-chloronaphthalen-2-yl)(2H-tetrazol-2-yl)methyl]piperidine] | 96 | 7.1 | 63 | 57 |  |  | 48.1% (at 10sc) | 
Clc1ccc2cc([C@@H]([C@H]3CCCNC3)n3ncnn3)ccc2c1 [Example 70, (3S)-3-[(R)-(6-chloronaphthalen-2-yl)(2H-tetrazol-2-yl)methyl]piperidine] | 95 |  | 3 | 14 |  |  |  | 
Fc1ccc2cc([C@@H]([C@H]3CCCNC3)n3ncnn3)ccc2c1 [Example 72, (3S)-3-[(R)-(6-fluoronaphthalen-2-yl)(2H-tetrazol-2-yl)methyl]piperidine] | 86 | 46.7 | 2 | 6 |  |  |  | 
c1ccc(-c2nnn([C@H](c3ccc4ccccc4c3)[C@H]3CCCNC3)n2)cc1 [Example 75, (3S)-3-[(S)-naphthalen-2-yl-(5-phenyl-tetrazol-2-yl)methyl]piperidine] | 86 |  | 41 | -1 |  |  |  | 
c1ccc2cc([C@H]([C@H]3CCCNC3)n3nc4ccccc4n3)ccc2c1 [Example 80, 2-{(S)-naphthalen-2-yl[(3S)-piperidin-3-yl]methyl}-2H-benzotriazole] | 59 |  | 84 | 55 |  |  |  | 
Fc1ccc2cc([C@H]([C@@H]3CCCNC3)n3ncnn3)ccc2c1 [Example 84, (3R)-3-[(S)-(6-fluoronaphthalen-2-yl)(2H-tetrazol-2-yl)methyl]piperidine] | 44 |  | -4 | 5 |  |  |  | 
Cc1ccc2cc([C@H]([C@H]3CCCNC3)n3ncnn3)ccc2c1 [Example 85, (3S)-3-[(S)-(6-methylnaphthalen-2-yl)(2H-tetrazol-2-yl)methyl]piperidine] | 94 | 11.3 | 81 | 74 |  |  | 46.4% (at 10sc) | 
Cc1ccc2cc([C@@H]([C@H]3CCCNC3)n3ncnn3)ccc2c1 [Example 86, (3S)-3-[(R)-(6-methylnaphthalen-2-yl)(2H-tetrazol-2-yl)methyl]piperidine] | 93 | 13.4 | 35 | -1 |  |  |  | 
c1ccc2cc([C@H]([C@H]3CCCNC3)n3cncn3)ccc2c1 [Example 90, (3S)-3-[(S)-naphthalen-2-yl(1H-1,2,4-triazol-1-yl)methyl]piperidine] | 87 |  | 44 | 39 |  |  |  | 
